{
  "source": "patent US6962909B2",
  "about": "“Treatment of neovascularization disorders with squalimine” (Genaera Corporation, priority 1995, dated 2005)",
  "key": {"[1]": {"tested_on": "Stage 59-60 Xenopus tadpoles", "test": "Xenopus tadpole assay", "type": "in vivo, Xenopus laevis", "settings": "10 μg/ml in water", "from_the_text": "A newly developed assay employing tadpoles, preferably Xenopus laevis Stages 59-60, were employed to study the effect of a compound by monitoring capillary occlusion in the tadpole's tail. […] The compounds of the invention affect the shape, viability and integrity of the embryonic tissues while not affecting the adult tissues, providing a powerful, highly specific screen. For example, substances that destroy all of the animal's epithelium, both adult and embryonic, could be regarded as toxic.\nIn this assay, tadpoles are introduced into Petri dishes containing a solution of the test compound in distilled water, preferably about 100 ml. The preferred concentration of the test compound is from about 1 μg/ml to about 10 μg/ml. The volume of liquid is sufficient for the animal to swim freely and drink from the solution. Thus, the effect observed results from oral absorption and subsequent systemic distribution of the agent. If the volume of liquid is not sufficient to permit oral intake, the effects that are observed would result from absorption through the surface epithelium. Thus, this simple assay can identify if an compound has characteristics of oral availability.\nAfter an amount of time, typically about 60 minutes, the occlusion of blood flow through capillaries in the tadpole's tail are observed under an inverted microscope at a magnification of roughly 100×.\nThe tadpole assay described above provides an advantageous way to determine the pharmacological targets of each steroid when introduced into a mammal, and to determine pharmacological categories into which synthetic compounds belong. In the assay, each of the steroids was dissolved in 100 ml of distilled water at a concentration of 10 μg/ml. Stage 59-60 Xenopus tadpoles were introduced and evaluated by light microscopy and gross observation 1 hour later."}, "[2]": {"tested_on": "human microvascular cells", "test": "Endothelial cord formation assay; on Effect on endothelial cord formation: key: + = Inhibition of angiogenesis; − = No inhibition of angiogenesis; T = Toxic; *= cell rounding @ 10 µg/ml", "type": "cell-based", "from_the_text": "Endothelial cells have the capacity in vitro to form tubular aggregates resembling capillaries in various early stages of formation. This conversion occurs under relatively specific conditions, in which essential growth factors along with an effective substratum are provided. It has been shown that both the interaction of growth factors with the endothelial cell and its attachment to a substratum activate the NHE. The activation of this exchanger is believed to be required for subsequent morphologic transformation of the endothelial cell into a multicellular tubular structure.\nTo assess the effect of compounds on the cord-like structures formed by human microvascular cells when plated in the presence of VGEF (Vascular Endothelial Growth Factor) and basic fibroblast growth factor on a collagen matrix, a standard cord formation assay was used."}, "S. aureus": {"tested_on": "S. aureus", "test": "Antibiotic activity, MIC", "type": "cell-based", "settings": "Staphylococcus aureus"}, "E. coli": {"tested_on": "E. coli", "test": "Antibiotic activity, MIC", "type": "cell-based", "settings": "Escherichia coli"}, "[3]": {"tested_on": "vitelline capillaries of 3- to 5-day chick embryo", "test": "Chick embryo vitelline capillary regression assay", "type": "in vivo", "set-up": "key to Vascular reactivity (capillary regression): + = Vascular reactivity; 0 = No vascular reactivity; +/− = Equivocal reactivity", "settings": "60 minutes", "description": "Using the chick embryo vitelline capillaries assay, compounds were tested for their ability to induce capillary regression. Each compound was applied in 0.1 ml of 15% Ficol 400 and PBS onto the embryo, and vascular regression was assessed after 60 minutes.\nThe 3-day chick embryo consists of an embryonic disc from which numerous vessels emerge and return, forming a “figure 8”-shaped structure—the embryo in the center with vascular loops extending outward over both poles. […] Following a lag period of around 15 minutes, the constriction of continuity between capillary and secondary vessels, generally on the “venous” side, was observed. Continued pulsatile blood flow progressed, resulting in a “swelling” of the blind tube, followed by a pinching off of the remaining connection and formation of an enclosed vascular sac resembling a “blood island.” This process progressed until only the largest vessels remained intact."}},
  "data": [
    {"smiles": "COC(=O)CCC(C)[C@H]1CCC2C3C[C@@H](O)[C@H]4C[C@H](NCCN)CC[C@]4(C)C3CC[C@@]21C", "note": "(some centres unmarked) [Compound 431]", "values": [
      {"measurement": "Pharmacological category in tadpole assay (similarity to a reference steroid)", "setting": "[1]", "value": "functionally similar to compound 1437"}
    ]},
    {"smiles": "CC(CCC(=O)O)[C@H]1CCC2C3C[C@@H](O)[C@H]4C[C@@H](NCCCNCCCCNCCCN)CC[C@]4(C)C3CC[C@@]21C", "note": "(some centres unmarked) [Compound 467]", "values": [
      {"measurement": "Effect on endothelial cord formation", "setting": "[2]; 1.0 μg/ml", "value": "−"},
      {"measurement": "Effect on endothelial cord formation", "setting": "[2]; 10.0 μg/ml", "value": "−"}
    ]},
    {"smiles": "COC(=O)CCC(C)[C@H]1CCC2C3CC[C@H]4C[C@@H](NCCCNCCCCNCCCN)CC[C@]4(C)C3CC[C@@]21C", "note": "(some centres unmarked) [Compound 459]", "values": [
      {"measurement": "Pharmacological category in tadpole assay (similarity to a reference steroid)", "setting": "[1]", "value": "pharmacologic activity similar to that seen for FX 3"}
    ]},
    {"smiles": "CC(C)CCCC(C)[C@H]1CCC2C3C(CC[C@@]21C)[C@@]1(C)CC[C@H](N)C[C@@H]1C[C@H]3O", "note": "(some centres unmarked)", "values": [
      {"measurement": "MIC", "setting": "S. aureus", "value": 2, "unit": "µg/mL"},
      {"measurement": "MIC", "setting": "E. coli", "value": "> 256", "unit": "µg/mL"}
    ]},
    {"smiles": "COC(=O)CCC(C)[C@H]1CCC2C3C(CC[C@@]21C)[C@@]1(C)CC[C@H](NCCCNCCCCNCCCN)C[C@H]1C[C@H]3O", "note": "(some centres unmarked)", "values": [
      {"measurement": "MIC", "setting": "E. coli", "value": 64, "unit": "µg/mL"}
    ]},
    {"smiles": "CC(CCC(=O)O)[C@H]1CCC2C3CC[C@@H]4C[C@H](NCCCNCCCCNCCCN)CC[C@]4(C)C3C[C@H](O)[C@@]21C", "note": "(some centres unmarked) [Compound 449]", "values": [
      {"measurement": "Effect on endothelial cord formation", "setting": "[2]; 1.0 μg/ml", "value": "−"}
    ]},
    {"smiles": "COC(=O)CCC(C)[C@H]1CCC2C3CC[C@H]4C[C@H](NCCCNCCCCNCCCN)CC[C@]4(C)C3CC[C@@]21C", "note": "(some centres unmarked) [Compound 458]", "values": [
      {"measurement": "Pharmacological category in tadpole assay (similarity to a reference steroid)", "setting": "[1]", "value": "pharmacologic activity similar to that seen for FX 3"}
    ]},
    {"smiles": "CC(CCC(=O)O)[C@H]1CCC2C3C(CC[C@@]21C)[C@@]1(C)CC[C@H](NCCCNCCCCNCCCN)C[C@@H]1C[C@H]3O", "note": "(some centres unmarked)", "values": [
      {"measurement": "MIC", "setting": "S. aureus", "value": 16, "unit": "µg/mL"},
      {"measurement": "MIC", "setting": "E. coli", "value": "32 to 64", "unit": "µg/mL"}
    ]},
    {"smiles": "CC(CCC(=O)O)[C@H]1CCC2C3C(CC[C@@]21C)[C@@]1(C)CC[C@H](NCCCNCCCCN)C[C@@H]1C[C@H]3O", "note": "(some centres unmarked) [Compound 381]", "values": [
      {"measurement": "Vascular reactivity (capillary regression)", "setting": "[3]; 1 μg applied", "value": 0}
    ]},
    {"smiles": "CC(CCC(=O)O)[C@H]1CCC2C3C(CC[C@@]21C)[C@@]1(C)CC[C@H](NCCCNCCCCNCCCN)C[C@H]1C[C@H]3O", "note": "(some centres unmarked) [drawing 73]", "values": [
      {"measurement": "MIC", "setting": "S. aureus", "value": 8, "unit": "µg/mL"},
      {"measurement": "MIC", "setting": "E. coli", "value": 256, "unit": "µg/mL"}
    ]},
    {"smiles": "COC(O)CCC(C)[C@H]1CCC2C3C(CC[C@@]21C)[C@@]1(C)CC[C@H](NCCCNCCCCNCCCN)C[C@H]1C[C@H]3O", "note": "(some centres unmarked)", "values": [
      {"measurement": "Cord Formation, Minimum Effective Concentration", "setting": "[2]", "value": 10, "unit": "µg/mL"}
    ]},
    {"smiles": "COC(=O)CCC(C)[C@H]1CCC2C3C(CC[C@@]21C)[C@@]1(C)CC[C@@H](NCCCNCCCCN)C[C@H]1C[C@H]3O", "note": "(some centres unmarked)", "values": [
      {"measurement": "MIC", "setting": "S. aureus", "value": 4, "unit": "µg/mL"},
      {"measurement": "MIC", "setting": "E. coli", "value": "32 to 64", "unit": "µg/mL"}
    ]},
    {"smiles": "COC(=O)CCC(C)[C@H]1CCC2C3C[C@@H](O)[C@H]4C[C@H](NCCN)CC[C@]4(C)C3CC[C@@]21C", "note": "(some centres unmarked)", "values": [
      {"measurement": "MIC", "setting": "E. coli", "value": "32 to 64", "unit": "µg/mL"}
    ]},
    {"smiles": "COC(=O)CCC(C)[C@H]1CCC2C3C(CC[C@@]21C)[C@@]1(C)CC[C@H](NCCCNCCCCNCCCN)C[C@H]1C[C@H]3O", "note": "(some centres unmarked) [Compound 411]", "values": [
      {"measurement": "Effect on endothelial cord formation", "setting": "[2]; 0.1 μg/ml", "value": "−"},
      {"measurement": "Effect on endothelial cord formation", "setting": "[2]; 1.0 μg/ml", "value": "−"},
      {"measurement": "Effect on endothelial cord formation", "setting": "[2]; 10.0 μg/ml", "value": "+"},
      {"measurement": "Vascular reactivity (capillary regression)", "setting": "[3]; 0.001 μg applied", "value": 0},
      {"measurement": "Vascular reactivity (capillary regression)", "setting": "[3]; 0.01 μg applied", "value": 0},
      {"measurement": "Vascular reactivity (capillary regression)", "setting": "[3]; 0.1 μg applied", "value": 0},
      {"measurement": "Vascular reactivity (capillary regression)", "setting": "[3]; 1 μg applied", "value": "+/−"}
    ]},
    {"smiles": "CC(C)CCCC(C)[C@H]1CCC2C3CC[C@H]4C[C@@H](NCCCNCCCCN)CC[C@]4(C)C3CC[C@@]21C", "note": "(some centres unmarked) [Compound 303]", "values": [
      {"measurement": "Vascular reactivity (capillary regression)", "setting": "[3]; 1 μg applied", "value": 0}
    ]},
    {"smiles": "COC(=O)CCC(C)[C@H]1CCC2C3C(CC[C@@]21C)[C@@]1(C)CC[C@@H](NCCN)C[C@H]1C[C@H]3O", "note": "(some centres unmarked) [drawing 118]", "values": [
      {"measurement": "Cord Formation, Minimum Effective Concentration", "setting": "[2]", "value": 10, "unit": "µg/mL"}
    ]},
    {"smiles": "COC(=O)CCC(C)[C@H]1CCC2C3C(CC[C@@]21C)[C@@]1(C)CC[C@H](NCCCNCCCCN)C[C@H]1C[C@H]3O", "note": "(some centres unmarked)", "values": [
      {"measurement": "MIC", "setting": "S. aureus", "value": 64, "unit": "µg/mL"},
      {"measurement": "MIC", "setting": "E. coli", "value": 256, "unit": "µg/mL"}
    ]}
  ]
}
